What was measured:
[1] = system: exon 4 skipped transcripts of ATXN3; test: ATXN3 Quantitative Splicing Assay; assay type: cell-based; conditions: Human neuroblastoma SK-N-MC cells, treated 24 h, qPCR; read-out: ATXN 3 E4 Skipping EC50
Experimental: Human neuroblastoma SK-N-MC cells were plated in 384-well plates at 20,000 cells/well. Twenty-four hours after plating, cells were treated with compounds for 24 h at appropriate concentrations ranging from 30 µM to 0.6 nM (0.3% DMSO). Treated cells were lysed in 15 μL of lysis buffer, and cDNA was synthesized using the Fast Advanced Cells-to-Ct kit. Two μL of each cDNA was used in qPCR reactions to confirm the exon 4 skipped transcripts of ATXN3. A second set of primers/probe E4E5 was used to detect the transcripts containing exon 4. The third set of primers/probe E8E9 was used to detect total gene level of ATXN3. The qPCR reactions were prepared in 384-well plates in 10 μL volume, using TaqMan™ Fast Advanced Master Mix with primers and probes shown in the table below. Reactions were run in a Quant Studio 6 qPCR instrument with default settings.
The primers and probes are listed below in Table 3.

total ATXN3 protein = test: ATXN3 Total Protein Assay; assay type: cell-based; conditions: Human neuroblastoma SK-N-MC cells, incubation 48 hours, MSD assay; read-out: ATXN3 Protein Potency IC50
Experimental: Human neuroblastoma SK-N-MC cells were seeded at 10,000 cells/well in 384 well plates one day prior to compound treatment. The concentrations of compounds were tested at appropriate doses ranging from 30 μM to 0.6 nM. After incubation for 48 hours, the cells were lysed with 25 μL of lysis buffer containing protease inhibitors, and total ATXN3 protein levels were assessed by Mesoscale Discovery (MSD) assay developed with one pair of anti-ATXN3 antibodies. The capture and detect antibodies were raised in mouse and rabbit respectively. Anti-rabbit MSD-ST antibody was used for secondary antibody.
ATXN3 recombinant protein was used for standards. The readouts were captured with 35 μL of MSD read buffer and multi-array 384-well high binding plates.

Row | SMILES | EC50 [1] [µM] | IC50 (total ATXN3 protein) [µM]
1 | Cc1csc2c(NCc3cccs3)nnnc12 [Compound 1, 7-methyl-N-(thiophen-2-ylmethyl)thieno[3,2-d][1,2,3]triazin-4-amine] | ≥ 10 | ≥ 10
2 | Cc1c(C[C@H](C)N)sc2c(NCc3cccs3)nnnc12 [Compound 2, (S)-6-(2-aminopropyl)-7-methyl-N-(thiophen-2-ylmethyl)thieno[3,2-d][1,2,3]triazin-4-amine] | 0.501 to 5 | 0.501 to 5
3 | Cc1csc2c(NCc3ccco3)nnnc12 [Compound 3, N-(furan-2-ylmethyl)-7-methylthieno[3,2-d][1,2,3]triazin-4-amine] | ≥ 10 | ≥ 10
4 | Cc1c(C[C@H](C)N)sc2c(NCc3ccco3)nnnc12 [Compound 4, (S)-6-(2-aminopropyl)-N-(furan-2-ylmethyl)-7-methylthieno[3,2-d][1,2,3]triazin-4-amine] | ≥ 10 | 0.501 to 5
